Patent US20140121373A1, “PROCESS FOR PREPARING STABLE POLYMORPHIC FORM OF ERLOTINIB HYDROCHLORIDE” (CADILA HEALTHCARE LIMITED, priority 2011, published 2014)

Test: Polymorphic stability study of the stable form of Erlotinib hydrochloride (PXRD, DSC, IR on storage)
Assay type: physicochemical
Settings: for DSC / IR / PXRD: should comply with data of stable polymorphic form
Protocol: (Refrigerator), 25° C.±2° C./60%±5% RH, 30° C.±2° C./65%±5% RH (Real Time) and 40° C.±2° C./75%±5% RH of the stable form of Erlotinib Hydrochloride.
• Powder X-ray Diffraction: X-ray powder diffraction spectrum was observed on a MF 2100 2 KW X-ray Powder diffractometer of make Rigaku having a Copper Kα-radiation at a voltage of 40 kV and 30 mA. Approximately 150 mg sample was gently flattened on a quartz plate without further processing (e.g. Grinding and sieving) and scanned from 4° to 40° at 0.010° sampling width and 4.000° per minute. • IR Spectroscopy: The IR spectra was performed on 8400S of make Shimadzu by using KBr pellet and recorded from 4000 to 400 cm^−1. About 2 mg of sample was triturated with 300 mg of finely powdered and dried potassium bromide. The mixture was carefully grinded, spread uniformly in a suitable die and submitted it in vacuum to a pressure of about 800 MPa […]. From the FTIR spectrum a blank FT-IR spectrum of KBr was subtracted. The blank IR spectrum was recorded prior to the measurement of the samples.
Differential Scanning Calorimetry (DSC): Melting points are determined by means of a DSC thermogram using a Pyris-1 make Perkin Elmer. DSC (Differential Scanning Calorimetry) is the technique of dynamic differential Calorimetry. Using this technique, the melting temperature can be measured by heating the sample until a thermal, i.e. an endothermic or exothermic, reaction is detected by means of ultrasensitive sensors. The DSC cell/sample chamber was purged with 100 ml/min of ultra-high purity nitrogen. The instrument was calibrated with high purity Indium. The sample was placed into an open aluminum DSC pan and measured against an empty reference pan. About 2 mg of sample being placed into the bottom of the pan and lightly tapped down to ensure good contact with the pan. The instrument was programmed to heat at a heating rate of 10° C./min in the temperature range between 50° C. and 300° C. • Microscope: A Lieca Microscope with Linkam Hot stage microscopy (TMS-94) system with polarized light, CCD camera and Linksys 32 data software. • HPLC: High Performance Liquid Chromatography Separation Module with PDA detector, Make Waters, Model No 2695. • KF: Moisture content was analyzed by using Karl Fisher Autotitrator 795 KFT Titrino make Metrohm.

[1] = 5° C. ± 3° C. (Refrigerator), Month 1
[2] = 5° C. ± 3° C. (Refrigerator), Month 2
[3] = 5° C. ± 3° C. (Refrigerator), Month 3
[4] = 5° C. ± 3° C. (Refrigerator), Month 6
[5] = 25° C. ± 2° C./60% ±5% RH, Month 1
[6] = 25° C. ± 2° C./60% ±5% RH, Month 2
[7] = 25° C. ± 2° C./60% ±5% RH, Month 3
[8] = 25° C. ± 2° C./60% ±5% RH, Month 6
[9] = 30° C. ± 2° C./65% ±5% RH (Real Time), Month 1
[10] = 30° C. ± 2° C./65% ±5% RH (Real Time), Month 2
[11] = 30° C. ± 2° C./65% ±5% RH (Real Time), Month 3
[12] = 30° C. ± 2° C./65% ±5% RH (Real Time), Month 6
[13] = 40° C. ± 2° C./75% ±5% RH, Month 1
[14] = 40° C. ± 2° C./75% ±5% RH, Month 2
[15] = 40° C. ± 2° C./75% ±5% RH, Month 3
[16] = 40° C. ± 2° C./75% ±5% RH, Month 6

C#Cc1cccc(Nc2ncnc3cc(OCCOC)c(OCCOC)cc23)c1.Cl [Erlotinib hydrochloride, 4-(3-Ethynylphenylamino)-6,7-bis(2-methoxyethoxy)-quinazoline]
DSC [1]: Complies | IR [1]: Complies | PXRD [1]: Complies | DSC [2]: Complies | IR [2]: Complies | PXRD [2]: Complies | DSC [3]: Complies | IR [3]: Complies | PXRD [3]: Complies | DSC [4]: Complies | IR [4]: Complies | PXRD [4]: Complies | DSC [5]: Complies | IR [5]: Complies | PXRD [5]: Complies | DSC [6]: Complies | IR [6]: Complies | PXRD [6]: Complies | DSC [7]: Complies | IR [7]: Complies | PXRD [7]: Complies | DSC [8]: Complies | IR [8]: Complies | PXRD [8]: Complies | DSC [9]: Complies | IR [9]: Complies | PXRD [9]: Complies | DSC [10]: Complies | IR [10]: Complies | PXRD [10]: Complies | DSC [11]: Complies | IR [11]: Complies | PXRD [11]: Complies | DSC [12]: Complies | IR [12]: Complies | PXRD [12]: Complies | DSC [13]: Complies | IR [13]: Complies | PXRD [13]: Complies | DSC [14]: Complies | IR [14]: Complies | PXRD [14]: Complies | DSC [15]: Complies | IR [15]: Complies | PXRD [15]: Complies | DSC [16]: Complies | IR [16]: Complies | PXRD [16]: Complies | retention of polymorphic and chemical identity on storage (both stability studies, all storage conditions): retained the same polymorphic and chemical identity at least up to six months
